{
  "source": "patent US10654843B2",
  "about": "“LMP7 inhibitors” (PRINCIPIA BIOPHARMA INC., priority 2014, dated 2020)",
  "key": {"[1]": {"biological_target": "immunoproteasome (LMP7/B5i) (Homo sapiens, UniProt P20618+P28062)", "test": "Caliper-based proteasome assay, immunoproteasome chymotrypsin-like activity", "assay_type": "biochemical", "settings": "human recombinant immunoproteasome 0.3 nM, FAM-labeled peptide substrate 1 μM, room temperature 3 h", "description": "(§1) A Caliper-based proteasome assay (Caliper Life Sciences, Hopkinton, Mass.) was used to measure inhibition of the chymotrypsin-like activity of both immunoproteasome (LMP7/B5i) and the constitutive proteasome (B5c) for a compound of Formula (I). Serial dilutions of test compounds were incubated with either human recombinant immunoproteasome or constitutive proteasome (0.3 nM enzyme) and a carboxyfluorescein (FAM)-labeled peptide substrate FAM-TYETFKSIMKKSPF-NH2 (1 μM) at room temperature for 3 h. The reaction buffer was 20 mM Hepes pH 7.4, 0.01% bovine serum albumin, 0.015% SDS, 0.5 mM EDTA, 1% DMSO. The reaction was then terminated with a buffer containing the known proteasome inhibitor carfilzomib at a concentration of 5 uM. The peptide cleavage reaction product was quantified on a Caliper LabChip 3000. Percent inhibition was calculated for each compound dilution and the concentration that produced 50% inhibition was calculated. This value is presented as the IC50."}, "[2]": {"biological_target": "constitutive proteasome (B5c) (Homo sapiens, UniProt P20618+P28074)", "test": "Caliper-based proteasome assay, constitutive proteasome chymotrypsin-like activity", "assay_type": "biochemical", "settings": "human recombinant constitutive proteasome 0.3 nM, FAM-labeled peptide substrate 1 μM, room temperature 3 h", "description": "as §1"}, "[3]": {"biological_target": "T1, proteasome activity in HT-29 cells (enriched in constitutive proteasome) (Homo sapiens, UniProt P28074)", "T1 construct": "endogenous in cells; host or cells: HT-29", "test": "Inhibition of proteasome activity in cells (Proteasome-Glo), HT-29", "assay_type": "cell-based", "settings": "2 hr incubation, Suc-LLVY-aminoluciferin, read-out: HT29 IC50", "description": "(§2) The cell-based effects of the compound of the present disclosure on immunoproteasome were determined by measuring inhibition of proteasome activity in cells using the Proteasome-Glo™ Cell-Based Reagent (Promega, Madison Wis). The Proteasome-Glo™ assay contains a specific luminogenic proteasome substrate in a buffer optimized for cell permeabilization, proteasome activity, and luciferase activity. For the chymotrypsin-like activity, the peptide substrate is Suc-LLVY-aminoluciferin (Succinyl-leucine-leucine-valine-tyrosine-aminoluciferin). Cleavage of the substrate by proteasome results in luminescent signal which is proportional to the proteasome activity. The cell line THP-1 (a monocytic leukemia cell line enriched in immunoproteasome), the cell line HT-29 (a colorectal adenocarcinoma cell line enriched in constitutive proteasome), and primary human peripheral blood mononuclear cells (PBMC) were used to assess proteasome activity. Cells were seeded in a 96-well plate at 10,000 cells per well in RPMI 1640 high glucose medium with 10% fetal bovine serum (FBS). Compound dilutions were added to cells starting at a concentration of 5 uM and decreasing in tripling dilutions. The final DMSO concentration was 1%. The concentration range was adjusted as needed for compounds of different potencies. The cells treated with compounds were incubated for 2 hr at 37° C. in 5% CO2. At the end of the 2 hour incubation period, cells were transferred to white 384 well assay plates. 20 uL of Proteasome-Glo™ Reagent was added to each well and incubated for 10 minutes at room temperature. The plate was read in the Analyst HT instrument (Molecular Devices, Sunnyvale, Calif.) using luminescence mode. The percent inhibition of activity was plotted as a function of log compound concentration. The IC50 was then calculated for each compound using Prism software from GraphPad Software Inc. (San Diego, Calif)."}, "[4]": {"biological_target": "T2, proteasome activity in primary human peripheral blood mononuclear cells (PBMC) (Homo sapiens, UniProt P28062)", "T2 construct": "endogenous in cells; host or cells: primary human PBMC", "test": "Inhibition of proteasome activity in cells (Proteasome-Glo), PBMC", "assay_type": "cell-based", "settings": "2 hr incubation, Suc-LLVY-aminoluciferin", "description": "as §2"}, "[5]": {"biological_target": "T3, proteasome activity in HT-29 cells (Homo sapiens, UniProt P28074)", "T3 construct": "endogenous in cells; host or cells: HT-29", "test": "Durability of binding in cells, wash-out assay (Proteasome-Glo), HT-29", "assay_type": "cell-based", "settings": "2 hours incubation, washout", "description": "The durability of binding of proteasome inhibitors was assessed in cells using wash-out assays and the Proteasome-Glo™ Reagent kit. THP-1 cells, HT-29 cells, or PBMC were incubated with an 8-fold dilution series of inhibitor for 2 hours. Following 2 hours of incubation, cells were washed using 3 occasions of centrifugation followed by resuspension in culture medium. Following inhibitor washout, cells were returned to culture for either 30 minutes, 4 hours, or 18 hours. Cells were then transferred to white 384 plates, and 20 uL of Proteasome-Glo™ Reagent was added to each well for 10 minutes. Plates were then read on an Analyst HT plate reader using luminescence mode. The percent inhibition of activity was plotted as a function of log compound concentration. The IC50 was then calculated for each compound using Prism software from GraphPad."}, "immunoproteasome (LMP7)": {"biological_target": "immunoproteasome (LMP7) (Homo sapiens, UniProt P20618+P28062)", "test": "Recovery of enzymatic activity upon dialysis", "assay_type": "biochemical", "settings": "FIG. 1, dialysis", "text": "The dialysis assay was done to determine if a compound binds reversibly or irreversibly to immunoproteasome thereby resulting in reversible or irreversible inhibition of proteaseome activity. […] Partial or complete recovery of proteasome activity over extended periods of time during dialysis is indicative of slow off-rate kinetics due to formation of a reversible covalent bond. For rapidly reversible compounds complete recovery of proteosome activity upon dialysis is expected to be observed.\nA solution containing immunoproteasome was incubated with a compound of the disclosure (test compound) or (S)-4-methyl-N—((S)-1-(((S)-4-methyl-1-((R)-2-methyloxiran-2-yl)-1-oxopentan-2-yl)amino)-1-oxo-3-phenylpropan-2-yl)-2-((S)-2-(2-morpholino-acetamido)-4-phenylbutanamido)-pentanamide (reference compound), an irreversible covalent inhibitor of the immunoproteosome which targets the catalytic threonine of the immunoproreasome subunits (see Kuhn, D. J., et al. 2007. Potent activity of carfilzomib, a novel, irreversible inhibitor of the ubiquitin-proteasome pathway, against preclinical models of multiple myeloma. Blood, 110(9), 3281-3290). […] Following dialysis, enzymatic activity was measured using the Caliper-based proteasome activity assay (Caliper Life Sciences, Hopkinton, Mass). […]"}, "[6]": {"tested_on": "multiple myeloma cell lines and primary patient tumor cells", "settings": "including those resistant to conventional and novel prior therapies; cited from earlier work"}, "[7]": {"tested_on": "human Th1/17 differentiation", "settings": "cited from earlier work"}, "[8]": {"tested_on": "mouse Th1/17 differentiation", "settings": "cited from earlier work"}, "[9]": {"tested_on": "B cell effector functions", "settings": "cited from earlier work"}, "[10]": {"tested_on": "proinflammatory cytokines (IL-6, TNF-α, IL-23)", "settings": "cited from earlier work"}, "[11]": {"tested_on": "murine collagen-induced arthritis", "settings": "including inflammation and bone erosion; cited from earlier work"}, "MRL/lpr lupus model": {"tested_on": "MRL/lpr lupus model", "settings": "cited from earlier work"}, "[12]": {"tested_on": "murine DSS-induced colitis model", "settings": "cited from earlier work"}, "[13]": {"tested_on": "Hashimoto's thyroiditis model", "settings": "autoantibody-driven model; cited from earlier work"}},
  "note": "Like-named read-outs stand apart in the source and are kept apart here.",
  "data": [
    {"smiles": "Cc1ccc(CNC(=O)[C@H](COc2cccc(C=C(C#N)C(=O)NC(C)(C)C)c2)NC(=O)[C@@H](NC(=O)c2cc(C)on2)[C@@H](C)O)cc1", "note": "[Example 3]", "values": [
      {"measurement": "IC50", "setting": "[1]", "result": 0.027, "unit": "µM"},
      {"measurement": "IC50", "setting": "[2]", "result": 1.03, "unit": "µM"},
      {"measurement": "IC50", "setting": "[3]", "result": 1.37, "unit": "µM"},
      {"measurement": "IC50", "setting": "[4]", "result": 0.003, "unit": "µM"},
      {"measurement": "IC50", "setting": "[5]; 30 minutes in culture, read-out: HT29 (30 min) IC50", "result": "> 5", "unit": "µM"},
      {"measurement": "IC50", "setting": "[5]; 4 hours in culture, read-out: HT29 (4 h) IC50", "result": "> 5", "unit": "µM"},
      {"measurement": "binding to the immunoproteosome", "setting": "immunoproteasome (LMP7)", "result": "reversible"}
    ]},
    {"smiles": "CC1=C(C(=O)N[C@H](C)C(=O)N[C@@H](Cc2c[nH]c3ccccc23)C(=O)N[C@@H](Cc2ccccc2)C(=O)[C@@]2(C)CO2)Cc2ccccc21", "note": "[PR-924]", "values": [
      {"measurement": "growth of multiple myeloma cell lines and primary patient tumor cells", "setting": "[6]", "result": "inhibit growth"}
    ]},
    {"smiles": "COc1ccc(C[C@H](NC(=O)[C@H](C)NC(=O)CN2CCOCC2)C(=O)N[C@@H](Cc2ccccc2)C(=O)[C@@]2(C)CO2)cc1", "note": "[PR-957]", "values": [
      {"measurement": "human Th1/17 differentiation", "setting": "[7]", "result": "potently block"},
      {"measurement": "mouse Th1/17 differentiation", "setting": "[8]", "result": "potently block"},
      {"measurement": "B cell effector functions", "setting": "[9]", "result": "potently block"},
      {"measurement": "production of proinflammatory cytokines (IL-6, TNF-α, IL-23)", "setting": "[10]", "result": "potently block"},
      {"measurement": "disease activity in murine collagen-induced arthritis", "setting": "[11]", "result": "significantly inhibit disease activity"},
      {"measurement": "anti-dsDNA IgG levels", "setting": "MRL/lpr lupus model", "result": "reduced"},
      {"measurement": "disease progression", "setting": "MRL/lpr lupus model", "result": "prevented disease progression"},
      {"measurement": "plasma cell numbers", "setting": "MRL/lpr lupus model", "result": "reduced"},
      {"measurement": "inflammation and tissue destruction", "setting": "[12]", "result": "reduced inflammation and tissue destruction"},
      {"measurement": "efficacy in Hashimoto's thyroiditis model", "setting": "[13]", "result": "efficacious"}
    ]}
  ]
}
